Measured values published in patent publication US12662518B2, “Engineered peptide and peptide mimetic compositions and methods” (The Wistar Institute of Anatomy and Biology, priority 2019, dated 2026).
“Also recorded” adds a separate entry of the source. Ends that are not written are not given here. Peptide text beside a SMILES is read from it.

Columns and labels:
[1] = tested on: prostate cancer cell types (LNCaP, C4-2B, PC3, DU145); experiment: cell death of prostate cancer cells, CellTox reactivity; format: cell-based, human; conditions: for tumor cell death / viability: PC3 / prostate cancer cells, 0-50 μM
Procedure: (§2) Cell death and apoptosis. […] The various cell-permeable MFF peptides were examined for induction of cytotoxicity using a CellTOX Green cytotoxicity assay kit (Promega). Briefly, 10^4 normal or tumor cells in 100 μl complete medium were plated on white opaque 96-well plate. […] Lysis Solution in the assay kit was used as cytotoxicity control (100% cell death) and treatment with PBS was used as a control for 100% cell viability.

[2] = tested on: DU145 or PC3 cells; experiment: release of HMGB1 and cyclophilin A from tumor cells, Western blotting; format: cell-based, human; conditions: marker of necrosis
[3] = tested on: PC3 cells; experiment: mitochondrial membrane potential in tumor cells, TMRE, time-lapse videomicroscopy and flow cytometry; format: cell-based, human; conditions: 10 μM, single-cell time-lapse videomicroscopy or whole cell population
Procedure: Analysis of mitochondrial membrane potential. […] In some experiments, PC3 cells were treated with cell-permeable scrambled peptide or cell-permeable MFF #8-11 peptide, washed three times in PBS, pH 7.4, and analyzed on a FACSCalibur flow cytometer, with the TMRE signal as FL1. Intact cells were gated in the FSC/SSC plot to exclude small debris. Cells treated with 20 μM FCCP 10 min prior to TMRE staining were used as a negative control. The resulting FL1 data were plotted on a histogram. For quantification of membrane potential of purified mitochondria, mitochondria isolated from PC3 cells (50 μg) were suspended in 400 μl of SB buffer (0.2 M sucrose, 10 mM Tris-MOPS, pH 7.4, 5 mM succinate, 1 mM sodium phosphate, 10 μM EGTA-Tris, 2 μM rotenone). […] After two washes with SB buffer, mitochondria were recovered by centrifugation at 6000×g for 10 min, suspended in 100 μl of SB buffer and mitochondrial membrane potential was quantified on a florescence microplate reader (Ex/Em=535/595 nm, Beckman Coulter). […]
For time-lapse videomicroscopy, PC3 cells (2×10^4) growing in high optical-quality glass bottom chambered 8-well cell culture slides (MatTek Corporation) were stained with 100 nM TMRE (Abcam) and 50 nM MitoTracker Green FM (Life Technologies) for 20 min. […] A minimum of 100 cells were analyzed from 2 independent experiments. […]

[4] = tested on: immortalized wild type (WT) mouse embryonic fibroblasts (MEF); experiment: cell death of wild type MEF; format: cell-based; conditions: 10-50 μM
Description: (§1) Cell death and apoptosis.

[5] = tested on: PC3 cells; experiment: cytochrome c release from tumor cells, Western blotting; format: cell-based, human; conditions: supernatants vs mitochondrial extracts
[6] = tested on: glioblastoma LN229 cells; experiment: cell death of glioblastoma cells; format: cell-based, human
Description: as §1

[7] = tested on: drug-sensitive and drug-resistant melanoma cells; conditions: isogenic pairs, CellTox reactivity
Procedure: as §2

[8] = tested on: CypD^−/− MEF; experiment: cell death of CypD-/- MEF; format: cell-based, mouse; conditions: 25 μM
Description: as §1

[9] = tested on: NSCLC A549 and H460 or breast adenocarcinoma MDA-231 and MCF-7 cells; experiment: NSCLC and breast adenocarcinoma cell lines, TMRE flow cytometry and CellTox cell death; format: cell-based, human; conditions: A549, H460, MDA-231, MCF-7 cells, 10-25 μM
[10] = tested on: patient-derived breast adenocarcinoma organoids; experiment: patient-derived breast adenocarcinoma organoids, Ki-67 and cleaved caspase-3 immunohistochemistry; format: cell-based, human; conditions: 50-100 μM, 24 h
[11] = tested on: patient-derived glioblastoma (GBM) neurospheres; experiment: patient-derived glioblastoma (GBM) neurospheres, calcein / To-Pro viability; format: cell-based; conditions: 10-50 μM, 1, 3 or 24 h; scrambled 50 μM
Description: Glioblastoma (GBM) neurospheres. Primary, patient-derived GBM neurospheres were isolated and maintained in culture essentially as described (Senft, D. & Ronai, Z. A. Regulators of mitochondrial dynamics in cancer. Curr Opin Cell Biol 39, 43-52 (2016)). Tissue samples were obtained from chemotherapy- or radiotherapy-naïve patients with confirmed histological diagnosis of WHO grade IV glioma (GBM) undergoing treatment at the Neurosurgery Division of Fondazione IRCCS Ca' Granda Ospedale Maggiore Policlinco (Milan, Italy). Written informed consent was obtained from all patients. Neurospheres were cyto-spinned on charged slides (Thermo Scientific, Waltham, Mass.) and treated with cell-permeable scrambled peptide (50 μM) or cell-permeable retro-inverso D-enantiomer MFF peptide (10-50 μM) for up to 24 h. Control-normalized changes in cell viability under the various conditions were determined by the ratio of Calcein (alive) and To-Pro (dead) staining and fluorescence microscopy (Eclipse Ti-E, Nikon Instruments, Florence, Italy).

[12] = tested on: normal prostatic epithelial cells (BPH-1); experiment: cell death of normal prostatic epithelial cells; format: cell-based, human; conditions: 0-40 μM, 2 h
Description: as §1

[13] = tested on: patient-derived NSCLC organoids; experiment: patient-derived NSCLC organoids, Ki-67 and cleaved caspase-3 immunohistochemistry; format: cell-based, human; conditions: 50-100 μM, 24 h
[14] = tested on: normal human foreskin fibroblasts (HFF); experiment: cell death of normal fibroblasts; format: cell-based; conditions: 0-40 μM
Description: as §1

CC[C@H](C)[C@H](NC(=O)CNC(=O)[C@H](CCCNC(=N)N)NC(=O)[C@H](C)NC(=O)[C@H](CO)NC(=O)[C@H](CCCCN)NC(=O)[C@H](CCSC)NC(=O)[C@H](CCCNC(=N)N)NC(=O)[C@H](CCCNC(=N)N)NC(=O)[C@H](CC(N)=O)NC(=O)[C@H](CCC(N)=O)NC(=O)[C@H](Cc1ccccc1)NC(=O)[C@H](Cc1c[nH]c2ccccc12)NC(=O)[C@@H](NC(=O)[C@H](CCCCN)NC(=O)[C@@H](NC(=O)[C@H](CCC(N)=O)NC(=O)[C@H](CCCNC(=N)N)NC(=O)CCCCCNC(=O)CCCC[C@@H]1SC[C@@H]2NC(=O)N[C@@H]21)[C@@H](C)CC)[C@@H](C)CC)C(=O)N[C@@H](CC(C)C)C(=O)N[C@@H](CO)C(=O)N[C@@H](CC(C)C)C(=O)N[C@H](C(=O)N[C@@H](CCC(N)=O)C(=O)N[C@@H](CO)C(=O)N[C@@H](CO)C(=O)N[C@H](C(=O)N[C@@H](CCCNC(=N)N)C(=O)N[C@@H](CCCNC(=N)N)C(=O)N[C@@H](C)C(=O)N[C@@H](Cc1ccc(O)cc1)C(=O)N[C@@H](CCC(N)=O)C(=O)N[C@@H](CCC(N)=O)C(=O)N[C@H](C(=O)N[C@@H](CC(C)C)C(=O)O)[C@@H](C)CC)[C@@H](C)O)[C@@H](C)CC [cell-permeable MFF peptide #8-11] (HELM PEPTIDE1{[O=C1N[C@H]2[C@H](CS[C@H]2CCCCC(=O)[*:2])N1].[O=C(CCCCCN[*:1])[*:2]].R.Q.I.K.I.W.F.Q.N.R.R.M.K.S.A.R.G.I.L.S.L.I.Q.S.S.T.R.R.A.Y.Q.Q.I.L}$$$$V2.0; N-terminus and C-terminus assumed)
tumor cell death / viability [1]: efficiently killed tumor cells in a time- and concentration-dependent manner
IC50 ([1]; prostate cancer cell types, read-out: IC50, cell killing): ~10 µM
HMGB1 release from tumor cells [2]: induced the release of HMGB1 and cyclophilin A (CypA)
cyclophilin A (CypA) release from tumor cells [2]: induced the release of HMGB1 and cyclophilin A (CypA)
loss of mitochondrial membrane potential [3]: induced acute loss of mitochondrial membrane potential; also recorded: induced sudden loss of mitochondrial membrane potential
cell death of WT MEF [4]: killed immortalized wild type (WT) mouse embryonic fibroblasts (MEF) in a concentration-dependent manner; also recorded: efficiently killed WT MEF in a time- and concentration-dependent response
cytochrome c release from tumor cells [5]: induced cytochrome c release
IC50 ([6]; glioblastoma, read-out: IC50, cell killing): ~10 µM
cell death of drug-sensitive and drug-resistant melanoma cells [7]: comparably killed
cell death of CypD^−/− MEF [8]: abolished cell death

cell-permeable scrambled peptide: cell-permeable control scrambled peptide #8-11 (SEQ ID NO: 22) (SSQLRYLARSQRITIQLIAGS; also: cell-permeable moiety)
tumor cell death ([9]; CellTox): had no effect
mitochondrial membrane potential ([9]; TMRE): had no effect
tumor cell death / viability [1]: did not kill normal or prostate cancer cells
HMGB1 release from tumor cells [2]: had no effect on HMGB1 release; also recorded: did not induce HMGB1 release
loss of mitochondrial membrane potential [3]: not
apoptosis / cell death markers (cleaved caspase-3^+ cells), breast adenocarcinoma organoids [10]: had no effect
cell proliferation (Ki-67^+ cells), breast adenocarcinoma organoids [10]: had no effect
cytotoxicity for patient-derived GBM neurospheres (loss of cell viability) [11]: not
killing of GBM LN229 cells ([6]; 0-40 μM): did not cause LN229 cell killing
cell death of normal prostatic epithelial cells [12]: did not kill normal or prostate cancer cells
apoptosis / cell death markers (cleaved caspase-3^+ cells), NSCLC organoids [13]: had no effect
cell proliferation (Ki-67^+ cells), NSCLC organoids [13]: had no effect
cell death of normal fibroblasts (HFF) [14]: did not kill normal or prostate cancer cells
